Converted amounts (≈) assume the structure as drawn. “Also recorded” adds a separate entry of the source. Where two headings read alike, the source gives them in different places.
Key:
[1] = tested on: lipid peroxidation in HT-1080 cells; test: C11-BODIPY lipid peroxidation flow cytometry assay; type: cell-based, human
[2] = tested on: HepG2 cells; test: Cellular dose response assay, HepG2; type: cell-based, human
How it was run: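 Following overnight attachment (1500 cells per well), triplicate wells got 2-fold serial dilutions across 12 points, with or without Fer-1 for HT-1080, at 0.4% final DMSO. After 48 h incubation, luminescent ATP-based viability (CellTiter-Glo) was recorded.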

[3] = target: T1, GPX4 (Homo sapiens, UniProt P36969); test: GPX4 activity assay in cell lysates (NADPH-coupled); type: biochemical; parameters: endogenous in cells; host or cells: A-673 cell lysate; details: for IC50: mean±SD, n=3 (FIG. 84E), read-out: IC50 in the in vitro GPX4 activity assay
T1 sequence (P36969 1-170 isoform P36969-2): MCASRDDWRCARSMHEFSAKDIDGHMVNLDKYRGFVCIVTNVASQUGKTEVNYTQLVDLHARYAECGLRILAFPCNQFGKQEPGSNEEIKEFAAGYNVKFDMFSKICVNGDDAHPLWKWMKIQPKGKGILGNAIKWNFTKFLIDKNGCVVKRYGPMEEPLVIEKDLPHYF
How it was run: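 Native GPX4 in lysates of A-673 cells grown with 20 nM sodium selenite; lysate preincubated with compound 45 min at 37 °C in pH 8.0 buffer with 3 mM GSH, 0.5 mM NADPH and glutathione reductase. Reaction started with phosphatidylcholine hydroperoxide; NADPH consumption followed at 340 nm over 25 min; triplicates.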

[4] = tested on: SK-HEP-1 cells; test: Cellular dose response assay, SK-HEP-1; type: cell-based, human
Description: HT-1080 (human [Homo sapiens] […] fibrosarcoma), A-673 (human [Homo sapiens] […] Ewing's sarcoma), and SK-HEP-1 (human [Homo sapiens] […] hepatic adenocarcinoma), cells were obtained from ATCC. Huh7 (human [Homo sapiens] […] hepatocellular carcinoma), HLF (human [Homo sapiens] […] hepatocellular carcinoma), HepG2 (human [Homo sapiens] […] hepatocellular carcinoma), cells were obtained from the Cancer Cell Bank at Columbia University Irving Medical Center. HT-1080, A-673, Huh-7, and HLF cells were grown in Dulbecco's Modified Eagle Medium (DMEM) supplemented with 10% heat inactivated fetal bovine serum (HI-FBS), 1% non-essential amino acids, and 1% penicillin streptomycin. HepG2 and SK-HEP-1 cells were grown in Eagle's Minimum Essential Medium (EMEM) supplemented with 10% HI-FBS, and 1% penicillin-streptomycin. All cells were cultured at 37° C. and 5% CO2.
HT-1080, HepG2, Huh7, HLF, and SK-HEP-1 cells were seeded into opaque white 384-well plates at 1500 cells per well then incubated at 37° C. with 5% CO2 overnight. The next day, compounds of interest were dissolved in DMSO and 12-point 2-fold dilution series were prepared with and without Fer-1. Cells were treated in triplicate (final DMSO concentration of 0.4% in all wells, including DMSO-only control wells) and incubated for a further 48 hours at 37° C. and 5% CO2. Cell viability was evaluated using CellTiter-Glo (Promega G7573) and luminescence was recorded on a Victor 5 plate reader. Data were analyzed in GraphPad Prism 9 and error bars represent standard deviation values for three technical replicates in a representative experiment.

[5] = in vitro; type: in vitro ADME, mouse; details: mouse, microsomes
Protocol: (§1) […]. The incubation timepoints measured were 0, 5, 10, 15, 30, and 45 minutes. All samples were prepared in duplicate and analyzed by LC-MS/MS.

[6] = in vitro; type: in vitro ADME, human; details: human, microsomes
Protocol: as §1

[7] = Kinetic aqueous solubility; details: for Solubility: aqueous solubility, Table 9
[8] = tested on: DTP cells derived from PC9; test: Drug-tolerant persister cell model, DTP cells; details: for % Viability Persister: 48 hours; for viability at 10 µM: Homo sapiens
[9] = tested on: SU-DHL-6; test: Cytotoxicity in DLBCL cells, SU-DHL-6; type: cell-based, human; details: for IC50: SU-DHL-6
[10] = HT-1080 cells, with and without fer-1
[11] = compounds alone, Table 4, read-out: IC50 (uM) HEPG2^a
[12] = with fer-1, Table 4, read-out: IC50 (uM) HEPG2^b
[13] = 200 μM, generation 1, mean ± s.d., n = 3
[14] = compounds alone, Table 4, read-out: IC50 (uM) SKHEP1^a
[15] = with fer-1, Table 4, read-out: IC50 (uM) SKHEP1^b
[16] = Fer-1 1.0 μM, read-out: IC50 (μM) with Fer-1

Compound	IC50 [2, 11] [µM]	IC50 [2, 12] [µM]	GPX4% inhibition at 200 (μM) [3, 13] [%]	IC50 [4, 14] [µM]	IC50 [4, 15] [µM]	GPX4% inhibition at 20 (μM) ([3]; generation 1) [%]	GPX4% inhibition at 50 (μM) ([3]; 50 μM, generation 1) [%]	GPX4% inhibition at 100 (μM) ([3]; generation 1) [%]	Microsome Stability t1/2 (min) mouse [5] [min]	Microsome Stability t1/2 (min) human [6] [min]	Solubility [7] [µM]	lipid peroxidation (C11-BODIPY), result in words [1, 10]	GPX4 inhibition ([3]; 200 μM)	selectivity for DTPs vs PC9 parental cells, result in words [8]	% Viability Persister ([8]; dose 1.0 μM) [%]	further results
COc1cccc2[nH]c(C(=O)n3ccnc3)cc12 [LOC1886, reference compound]												induces lipid peroxidation in cells				IC50 ([2]; Homo sapiens, HepG2, compounds alone, read-out: IC50 (μM) HEPG2^a): 88.6 µM; IC50 ([2]; Homo sapiens, HepG2, compounds and fer-1 1.0 μM, read-out: IC50 (μM) HEPG2^b): 29.1 µM; inhibition at 200 µM ([3]; 200 μM, mean ± s.d., n = 3, read-out: GPX4% inhibition at 200): 31.9 ± 6%
Cn1nc(C(=O)NC(C)(C)COC(=O)CCl)c2ccc(Br)cc21 [QW-314]													complete inhibition	selective lethality in DTPs vs PC9 parental cells; also recorded: preferential induction of significantly more cell death in the DTP cells compared to the parental cells		lipid peroxidation (C11-BODIPY), result in words [1]: increased lipid peroxidation that is rescuable by ferrostatin-1; viability at 10 µM ([8]; 48 h, read-out: % Viability Persister): 22%; viability at 10 µM ([8]; read-out: % Viability Persister + 2 μM Fer-1): 73%; half-life at 1 μM ([5]; pH 7.4): 5.3 min; IC50 ([2]; Homo sapiens, HepG2, read-out: IC50 (uM) HEPG2^a): 11.3 µM; IC50 ([2]; Homo sapiens, HepG2, read-out: IC50 (uM) HEPG2^b): 222 µM; half-life at 1 μM ([6]; pH 7.4): 6 min; GPX4 inhibition ([3]; 20 µM): complete inhibition in the assay even at 20 μM; IC50 [3]: 5.8 µM; inhibition at 20 µM ([3]; read-out: GPX4% inhibition at 20 (μM)): 108 ± 5.3%; inhibition at 200 µM ([3]; read-out: GPX4% inhibition at 200 (μM)): 93.1 ± 6%; IC50 ([4]; Homo sapiens, SK-HEP1, read-out: IC50 (uM) SKHEP1^a): 10.8 µM; IC50 ([4]; Homo sapiens, SK-HEP1, read-out: IC50 (uM) SKHEP1^b): 106 µM; solubility at 1 h ([7]; phosphate buffered saline, pH 7.4, aqueous buffer, kinetic from dmso stock): 61 µM (≈ 24.6 µg/mL)
CC(C)(COC(=O)CCl)NC(=O)c1nn(Cc2cc(Cl)cc(Cl)c2)c2cc(-c3ccc(N4CCOCC4)c(Cl)c3)ccc12 [QW-852]												increase in lipid-ROS which can be attenuated by ferrostatin-1		greater potency and selectivity to DTP cells	48.00	% Viability Persister + 2 μM Fer-1 ([8]; dose 1.0 μM, + 2 μM Fer-1): 93.75%; % Viability Persister ([8]; dose 10.0 μM): 3.25%; Selectivity^a (fold) [9]: 269 fold; IC50 ([9]; 24 h, read-out: IC50): 0.019 µM; IC50 [9, 16]: 5110 µM; GPX4 inhibitory activity, result in words [3]: greater GPX4 inhibitory activity than QW-446 at 2.5 μM concentration; GPX4% inhibition at 2.5 μM ([3]; 2.5 μM, 4th generation): 88.2 ± 13.3%
COC(=O)c1ccc([C@@H]2c3[nH]c4ccccc4c3C[C@@H](C(=O)OC)N2C(=O)CCl)cc1 [RSL3, reference compound]	5.4	32.2		0.05	> 40				2.4	14	26 (≈ 11.5 µg/mL)				6.00	IC50 ([2]; compounds alone, Table 7, read-out: IC50 (uM) HEPG2^a): 5.4 µM; IC50 ([2]; compounds alone, read-out: IC50 (μM) HEPG2^a): 5.4 µM; IC50 ([2]; compounds and fer-1 1.0 μM, read-out: IC50 (μM) HEPG2^b): 32.2 µM; IC50 ([2]; with fer-1, Table 7, read-out: IC50 (uM) HEPG2^b): 32.2 µM; Selectivity^a (fold) [9]: 71 fold; IC50 ([9]; 24 h, read-out: IC50): 0.019 µM; IC50 [9, 16]: 1.35 µM; GPX4% inhibition at 200 (μM) ([3]; 200 μM, mean ± s.d., n = 3): 112.5 ± 6.5%; IC50 [3]: 7.6 µM; IC50 ([4]; compounds alone, Table 7, read-out: IC50 (uM) SKHEP1^a): 0.05 µM; IC50 ([4]; with fer-1, Table 7, read-out: IC50 (uM) SKHEP1^b): > 40 µM

Second part, led by results:

IC50 [2, 11] [µM]	IC50 [2, 12] [µM]	GPX4% inhibition at 200 (μM) [3, 13] [%]	IC50 [4, 14] [µM]	IC50 [4, 15] [µM]	GPX4% inhibition at 20 (μM) ([3]; generation 1) [%]	GPX4% inhibition at 50 (μM) ([3]; 50 μM, generation 1) [%]	GPX4% inhibition at 100 (μM) ([3]; generation 1) [%]	Microsome Stability t1/2 (min) mouse [5] [min]	Microsome Stability t1/2 (min) human [6] [min]	Solubility [7] [µM]	Compound	lipid peroxidation (C11-BODIPY), result in words [1, 10]	GPX4 inhibition ([3]; 200 μM)	selectivity for DTPs vs PC9 parental cells, result in words [8]	% Viability Persister ([8]; dose 1.0 μM) [%]	further results
69	104	−3.3 ± 45.3	24.1	52.8							CC(C)(COC(=O)CCl)NC(=O)c1cc2ccccc2[nH]1 [QW-147]		complete loss in potency of inhibitory activity			
> 400	> 400	87.3 ± 34.6	10.1	121	66.7 ± 1.4	79.2 ± 5.8	62.7 ± 10.9				CC(C)(COC(=O)CCl)NC(=O)c1cc2cc([N+](=O)[O-])ccc2[nH]1 [QW-148]					
81.4	291	150.4 ± 20.3	24.7	340	27.9 ± 5.5	56.0 ± 6.2	70.5 ± 9.2	0.9	1.5	88 (≈ 29.8 µg/mL)	COc1ccc2cc(C(=O)NC(C)(C)COC(=O)CCl)[nH]c2c1 [QW-152]		complete inhibition			GPX4 inhibition ([3]; 50 μM): approximately 60%
25.4	51.5	170.3 ± 33.5	13.7	62.8	61.2 ± 0.5	98.6 ± 4.1	95.5 ± 6.2	>1000	>1000	23 (≈ 8.92 µg/mL)	CC(C)(COC(=O)CCl)NC(=O)c1cc2ccc(Br)cc2[nH]1 [QW-156]	induced fer-1 rescuable increases in lipid peroxidation	complete inhibition	no selectivity for DTP cells over PC9 cells at most concentrations tested	122.00	% Viability Persister ([8]; dose 10.0 μM): 73.25%; % Viability Persister ([8]; dose 25.0 μM): 24.50%; % Viability Persister ([8]; dose 50.0 μM): 2.50%; GPX4 inhibition ([3]; 50 μM): complete GPX4 inhibition

Reference: patent publication US20250248979A1, “NOVEL GPX4 INHIBITORS AND USES THEREOF” (THE TRUSTEES OF COLUMBIA UNIVERSITY IN THE CITY OF NEW YORK, priority 2022, published 2025)
